Converted amounts (≈) assume the structure as drawn.
Experiments:
[1] = test system: human glycine N-methyltransferase promoter; test: GNMT promoter-driven luciferase reporter assay in H7GPL cells; assay type: cell-based; conditions: H7GPL luciferase
Method: Please refer to FIG. 1, which illustrates the configuration of pLV-GNMTpLuc plasmid. HEK293T cells were cotransfected with a packaging plasmid-pCMV-ΔR8.91, a VSV-G envelope expressing plasmid-pMD.G and pLV-GNMTpLuc using TurboFect™ Reagent (Fermentas, Hanover, Md.). One resultant colony was picked, amplified and denominated as H7GPL (HuH-7-GNMT promoter-Luciferase). The relative luciferase activity (RLA) was calculated as “activity of luciferase/intensity of alamarBlue fluorescence”. The fold changes in GNMT promoter induction was calculated as “RLA of drug/RLA of solvent control”. Compounds with the ability to activate human glycine N-methyltransferase promoter in H7GPL could serve as a citeria for screening drugs.
Please refer to FIG. 2, which illustrates the luciferase activity in a screening platform. Previously, 26 FDA approved drugs were identified that can reverse the gene expression signature of HCC. We obtained 26 drugs. H7GPL cells were seeded in 96-well plates for 18 hours and then were treated with these 26 drugs and solvent control for an extra 24 hours.
In the initial screening, when (individual luciferase activity−average luciferase activity of all hits)/standardized Z scores of all samples is greater than 1.5, it means the compound has the capability of enhancing the GNMT reporter activity.
Huh7 cells were infected with this virus and selected with puromycin-containing medium. One resultant colony was picked, amplified and denominated as H7GPL (Huh7 GNMT promoter-luciferase). The cell lysate of H7GPL was used for luciferase activity measurement using the Luciferase Assay System (Promega).
For primary screening, H7GPL cells seeded in 96-well plates were treated for 24 h with individual drugs at a concentration of 2 mg/mL for crude extracts and 0.2 mg/mL for pure compounds and then were lysed for the luciferase activity assay using the Luciferase Assay System (Promega, Madison, Wis., USA).
Reporter activity for each well was transformed to the Z score by using data from all assay plates.
Then, hits of primary screening were sorted by Z score ≥1.5 and used for secondary screening.
And then placed in the above-described culture plate H7GPL cell replication, and after the disposal of seized goods in those 20 hours, the company added AbD serotec Reagent (Oxford, UK), further cultured for 4 hours.
The cytotoxicity was measured according to the manufacturer's recommendation for assessing the reporter gene.
Drugs that induced GNMT promoter activity ≥1.5-fold were considered as hits of the secondary screen with the capability of enhancing the activity of GNMT.

[2] = test system: SK-HEP-1 cells; test: alamarBlue cell viability, SK-HEP-1; assay type: cell-based, human
Description: (§1) Next, we analyzed the effect of PGG on cell proliferation in different liver cancer cell lines, including Huh7, Hep3B (ATCC-No 8064), HepG2 (ATCC HB-8065), SK-HEP-1 (ATCC HTB-52), Mahlavu and HepG2 (ATCC HB-8065).
(§2) Please refer to FIG. 18, which illustrates the effect of PGG on cell proliferation in different liver cancer cell lines, wherein the numeral 1 denotes Huh7 cells, the numeral 2 denotes Hep3B cells, the numeral 3 denotes SK-HEP-1 cells, the numeral 4 denotes Mahlavu cells, and the numeral 5 denotes HepG2 cells. And cell viability was determined by the alamarBlue® viability assay. IC50 values of PGG in each cell line are shown as follows: Huh7 cells 0.03 mg/mL, Hep3B cells 0.07 mg/mL, SK-HEP-1 cells, Mahlavu cells and HepG2 0.10 mg/mL dose-dependent.
(§3) Human liver cancer cell lines Huh7, Hep G2, Hep 3B, SK-HEP-1, Mahlavu and embryonic kidney cell line HEK-293T all were cultured in Dulbecco's Modified Eagle's Medium (DMEM) (Gibco BRL, Grand Island, N.Y., USA) with 10% heat-inactivated fetal bovine serum (HyClone, Logan, Utah, USA), penicillin (100 U/mL), streptomycin ([…]), nonessential amino acids (0.1 mM/L) and L-glutamine (2 mM/L) in a humidified incubator with 5% CO2.

[3] = test system: HepG2 cells; test: alamarBlue cell viability, HepG2; assay type: cell-based, human
Description: as §1, §2, §3

[4] = test system: Huh7 cells; test: Antitumor effect of PGG, Huh7 xenograft; assay type: in vivo, nude mice; conditions: 300 mpk, once a day for 10 days
Method: To test the antitumor effect of PGG in vivo, Huh7 cells were implanted subcutaneously into nude mice.
By the same token, mice were subcutaneously injected with Huh7 cells (2×10^6) in order to test the anti-tumor effect of PGG in vivo.
Tumor growth was monitored (every day or three times per week) by using Vernier caliper measurement of the length (L) and width (W) of the tumor.
Tumor volume (TV) was calculated by using the formula volume=(L×W^2)/2.

[5] = test system: GNMT; test: GNMT expression in xenograft tumor samples; assay type: in vivo, mice
Description: Please refer to FIG. 21, which illustrates GNMT/actin expression in the tumor tissue.
Please refer to FIG. 30, which illustrates the relative expression of GNMT mRNA in the tumor xenograft mice after treatments, wherein the numeral 1 is for a physiological saline solution, the numeral 2 is for F3-6 (25 mpk), the numeral 3 is for F3-6 (300 mpk), the numeral 4 is for sorafenib (10 mpk), the numeral 5 is for F3-6 (25 mpk) with sorafenib (10 mpk), and the numeral 6 is for PGG (25 mpk) with sorafenib (10 mpk). The expression activity of GNMT mRNA is increased whenever fracrions F3-6 or PGG are administered.
RNA was prepared by using Tri Reagent (Sigma-Aldrich, St Louis, Mo., USA) and was reverse transcribed into cDNA using a Super Script II Reverse Transcriptase Kit (Invitrogen Inc., Carlsbad, Calif., USA).
PCR was performed on an ABI StepOne Plus System (Applied Biosystems, Foster City, Calif., USA) using the LightCycler® First Start DNA Master SYBR Green I reagent (Roche Diagnostics, Basel, Switzerland). The mRNA level was normalized using the TATA-box binding protein (TBP) mRNA level as the standard. […]
Protein lysates were quantified and separated on SDS-PAGE gel, and immunoblotting was carried out. […]

IC50 [2]: 100 mg/L (≈ 106 µM) | IC50 [3]: 100 mg/L (≈ 106 µM)
SMILES: O=C(OC[C@H]1O[C@@H](OC(=O)c2cc(O)c(O)c(O)c2)[C@H](OC(=O)c2cc(O)c(O)c(O)c2)[C@@H](OC(=O)c2cc(O)c(O)c(O)c2)[C@@H]1OC(=O)c1cc(O)c(O)c(O)c1)c1cc(O)c(O)c(O)c1 [PGG, 1,2,3,4,6-penta-O-galloyl-β-D-glucopyranoside]
GNMT promoter activity (in words) [1]: can induce GNMT promoter activity | tumor growth (tumor volume) vs control group [4]: significant inhibition in tumor growth | GNMT/actin expression in the tumor tissue (immunoblot) ([5]; PGG 300 mpk xenograft, FIG. 21): induced | expression activity of GNMT mRNA in the tumor ([5]; combination xenograft study, FIG. 30, F3-6 25 or 300 mpk, PGG 25 mpk with sorafenib 10 mpk): increased

Source: patent publication US11000535B2, “Anticancer composition and use thereof” (KAOHSIUNG MEDICAL UNIVERSITY, priority 2015, dated 2021)
